Where two headings read alike, the source gives them in different places.
Legend:
Assay in all cases: KINOMEscan assay (Eurofins DiscoverX)
Assay type in all cases: binding
[1] = target: T1, kinome (kinase panel) (Homo sapiens, UniProt Q9UL54); conditions: TAOK2; 1000 nM; read-out: Percent Control
T1 construct: purchased Eurofins DiscoverX

[2] = target: T2, kinome (kinase panel) (Homo sapiens, UniProt Q9UK32); conditions: 1000 nM, read-out: Percent Control
T2 construct: purchased Eurofins DiscoverX
T2 sequence (Q9UK32 whole entry): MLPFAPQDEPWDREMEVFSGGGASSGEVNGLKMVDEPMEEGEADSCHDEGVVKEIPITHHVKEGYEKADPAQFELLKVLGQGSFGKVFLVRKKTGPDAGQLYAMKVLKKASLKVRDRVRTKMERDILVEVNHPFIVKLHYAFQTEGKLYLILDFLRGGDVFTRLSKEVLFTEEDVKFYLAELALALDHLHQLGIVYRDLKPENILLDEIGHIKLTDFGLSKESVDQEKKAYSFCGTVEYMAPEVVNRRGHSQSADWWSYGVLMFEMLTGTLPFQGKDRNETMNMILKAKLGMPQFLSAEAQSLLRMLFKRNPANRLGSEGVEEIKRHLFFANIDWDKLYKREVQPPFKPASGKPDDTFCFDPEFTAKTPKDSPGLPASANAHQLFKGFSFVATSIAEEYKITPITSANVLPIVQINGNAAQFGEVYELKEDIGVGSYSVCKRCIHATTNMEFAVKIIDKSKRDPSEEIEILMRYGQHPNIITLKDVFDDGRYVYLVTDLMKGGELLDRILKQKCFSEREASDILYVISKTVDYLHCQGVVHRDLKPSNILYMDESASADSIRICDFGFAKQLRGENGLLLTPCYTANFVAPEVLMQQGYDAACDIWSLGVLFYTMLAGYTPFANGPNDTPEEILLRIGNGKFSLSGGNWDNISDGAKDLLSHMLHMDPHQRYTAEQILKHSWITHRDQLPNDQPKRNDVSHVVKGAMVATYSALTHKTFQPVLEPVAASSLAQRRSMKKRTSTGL

[3] = target: T3, kinome (kinase panel) (Homo sapiens, UniProt Q8NEB9); conditions: VPS34 (PIK3C3); 1000 nM; read-out: Percent Control
T3 construct: purchased Eurofins DiscoverX
T3 sequence (Q8NEB9 whole entry): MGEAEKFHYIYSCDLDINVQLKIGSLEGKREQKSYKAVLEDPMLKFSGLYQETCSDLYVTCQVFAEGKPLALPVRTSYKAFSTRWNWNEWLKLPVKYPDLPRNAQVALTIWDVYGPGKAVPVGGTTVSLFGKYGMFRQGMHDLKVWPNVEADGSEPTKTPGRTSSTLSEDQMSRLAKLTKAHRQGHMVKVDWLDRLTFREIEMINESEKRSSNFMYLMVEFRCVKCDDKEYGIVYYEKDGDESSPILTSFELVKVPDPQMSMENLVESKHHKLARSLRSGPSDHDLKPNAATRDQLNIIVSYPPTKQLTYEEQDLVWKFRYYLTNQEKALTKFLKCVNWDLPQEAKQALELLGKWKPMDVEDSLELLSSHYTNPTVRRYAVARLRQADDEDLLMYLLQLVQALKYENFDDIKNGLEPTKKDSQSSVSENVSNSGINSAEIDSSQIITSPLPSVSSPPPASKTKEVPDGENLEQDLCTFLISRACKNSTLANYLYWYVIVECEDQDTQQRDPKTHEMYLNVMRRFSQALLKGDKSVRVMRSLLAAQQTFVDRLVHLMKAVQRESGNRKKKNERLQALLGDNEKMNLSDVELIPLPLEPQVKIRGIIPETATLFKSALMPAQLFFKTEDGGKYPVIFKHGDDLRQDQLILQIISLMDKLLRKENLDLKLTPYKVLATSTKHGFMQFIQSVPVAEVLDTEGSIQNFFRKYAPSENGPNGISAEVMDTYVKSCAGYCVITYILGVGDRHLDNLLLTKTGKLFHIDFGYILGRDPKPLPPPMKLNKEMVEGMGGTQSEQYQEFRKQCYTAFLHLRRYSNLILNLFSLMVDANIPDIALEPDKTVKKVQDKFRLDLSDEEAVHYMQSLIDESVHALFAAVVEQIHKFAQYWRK

[4] = target: T4, kinome (kinase panel) (Homo sapiens, UniProt O00141); conditions: SGK (SGK1); 1000 nM; read-out: Percent Control
T4 construct: purchased Eurofins DiscoverX

[5] = target: T5, kinome (kinase panel) (Homo sapiens, UniProt P51957); conditions: NEK4; 1000 nM; read-out: Percent Control
T5 construct: purchased Eurofins DiscoverX

[6] = target: T6, kinome (kinase panel) (Homo sapiens, UniProt O75582); conditions: 1000 nM, read-out: Percent Control
T6 construct: purchased Eurofins DiscoverX
T6 sequence (O75582 whole entry): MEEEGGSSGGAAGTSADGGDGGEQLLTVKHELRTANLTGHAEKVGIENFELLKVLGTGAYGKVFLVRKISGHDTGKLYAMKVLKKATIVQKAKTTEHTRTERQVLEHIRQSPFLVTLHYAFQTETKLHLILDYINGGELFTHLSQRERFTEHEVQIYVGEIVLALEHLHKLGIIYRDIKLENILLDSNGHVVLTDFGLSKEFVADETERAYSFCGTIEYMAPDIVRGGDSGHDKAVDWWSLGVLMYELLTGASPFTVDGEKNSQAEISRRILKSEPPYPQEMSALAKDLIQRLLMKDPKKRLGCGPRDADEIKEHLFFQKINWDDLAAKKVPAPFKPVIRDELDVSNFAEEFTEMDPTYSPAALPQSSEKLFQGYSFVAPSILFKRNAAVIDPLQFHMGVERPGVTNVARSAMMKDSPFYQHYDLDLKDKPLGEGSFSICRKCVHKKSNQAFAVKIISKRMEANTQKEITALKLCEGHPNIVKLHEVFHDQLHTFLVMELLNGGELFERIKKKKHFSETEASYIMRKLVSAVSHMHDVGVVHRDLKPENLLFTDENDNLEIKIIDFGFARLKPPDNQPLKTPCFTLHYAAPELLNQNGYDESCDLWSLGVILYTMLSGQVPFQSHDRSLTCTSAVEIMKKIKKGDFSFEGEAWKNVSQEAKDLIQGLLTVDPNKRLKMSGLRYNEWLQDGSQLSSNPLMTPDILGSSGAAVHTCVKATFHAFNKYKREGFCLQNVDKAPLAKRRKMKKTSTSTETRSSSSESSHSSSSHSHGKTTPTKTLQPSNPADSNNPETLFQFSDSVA

[7] = target: T7, kinome (kinase panel) (Homo sapiens, UniProt P21127); conditions: CDC2L1 (Entrez CDK11B); 1000 nM; read-out: Percent Control
T7 construct: purchased Eurofins DiscoverX

[8] = target: T8, kinome (kinase panel) (Homo sapiens, UniProt P25098); conditions: GRK2 (Entrez ADRBK1); 1000 nM; read-out: Percent Control
T8 construct: purchased Eurofins DiscoverX

[9] = target: T9, kinome (kinase panel) (Homo sapiens, UniProt Q15418); conditions: 1000 nM, read-out: Percent Control
T9 construct: purchased Eurofins DiscoverX
T9 sequence (Q15418 whole entry): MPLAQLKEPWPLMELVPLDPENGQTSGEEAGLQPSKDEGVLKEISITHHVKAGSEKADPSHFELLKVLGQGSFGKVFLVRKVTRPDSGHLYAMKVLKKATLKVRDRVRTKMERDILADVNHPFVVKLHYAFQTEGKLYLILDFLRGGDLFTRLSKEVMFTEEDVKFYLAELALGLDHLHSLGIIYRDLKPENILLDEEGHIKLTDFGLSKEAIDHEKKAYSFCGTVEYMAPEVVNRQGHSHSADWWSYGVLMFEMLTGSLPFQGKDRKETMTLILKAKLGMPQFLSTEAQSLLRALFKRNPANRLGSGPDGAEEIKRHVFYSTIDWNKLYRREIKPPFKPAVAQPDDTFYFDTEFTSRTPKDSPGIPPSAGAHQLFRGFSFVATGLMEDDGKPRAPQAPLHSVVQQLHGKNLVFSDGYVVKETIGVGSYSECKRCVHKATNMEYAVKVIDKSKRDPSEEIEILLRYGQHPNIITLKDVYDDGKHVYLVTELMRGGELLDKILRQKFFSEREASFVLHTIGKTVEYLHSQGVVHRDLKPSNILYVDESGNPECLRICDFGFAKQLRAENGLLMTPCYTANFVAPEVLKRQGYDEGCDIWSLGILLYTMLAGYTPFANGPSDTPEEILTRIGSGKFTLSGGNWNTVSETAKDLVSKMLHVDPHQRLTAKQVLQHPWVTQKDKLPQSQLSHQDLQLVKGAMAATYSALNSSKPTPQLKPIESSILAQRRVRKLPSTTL

[10] = target: T10, kinome (kinase panel) (Homo sapiens, UniProt P42336, H1047L); conditions: read-out: Percent Control
T10 construct: purchased Eurofins DiscoverX

[11] = target: T11, kinome (kinase panel) (Homo sapiens, UniProt Q9Y4K4); conditions: MAP4K5; 1000 nM; read-out: Percent Control
T11 construct: purchased Eurofins DiscoverX

[12] = target: T12, kinome (kinase panel) (Homo sapiens, UniProt P30291); conditions: WEE1; 1000 nM; read-out: Percent Control
T12 construct: purchased Eurofins DiscoverX

[13] = target: T13, kinome (kinase panel) (Homo sapiens, UniProt O00444); conditions: PLK4; 1000 nM; read-out: Percent Control
T13 construct: purchased Eurofins DiscoverX

[14] = target: T14, kinome (kinase panel) (Homo sapiens, UniProt O15264); conditions: p38-delta (Entrez MAPK13); 1000 nM; read-out: Percent Control
T14 construct: purchased Eurofins DiscoverX
T14 sequence (O15264 whole entry): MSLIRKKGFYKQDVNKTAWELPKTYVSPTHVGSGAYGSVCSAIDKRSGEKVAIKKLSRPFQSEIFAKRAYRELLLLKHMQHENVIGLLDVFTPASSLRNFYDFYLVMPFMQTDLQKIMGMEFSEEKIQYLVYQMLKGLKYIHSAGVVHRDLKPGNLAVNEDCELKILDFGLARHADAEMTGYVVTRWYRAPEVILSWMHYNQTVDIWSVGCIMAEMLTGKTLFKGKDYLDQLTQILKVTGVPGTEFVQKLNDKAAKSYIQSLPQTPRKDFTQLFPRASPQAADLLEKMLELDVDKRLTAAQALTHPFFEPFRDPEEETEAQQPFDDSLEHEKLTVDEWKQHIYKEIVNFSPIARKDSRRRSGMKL

[15] = target: T15, kinome (kinase panel) (Homo sapiens, UniProt Q9UPE1); conditions: SRPK3; 1000 nM; read-out: Percent Control
T15 construct: purchased Eurofins DiscoverX
T15 sequence (Q9UPE1 whole entry): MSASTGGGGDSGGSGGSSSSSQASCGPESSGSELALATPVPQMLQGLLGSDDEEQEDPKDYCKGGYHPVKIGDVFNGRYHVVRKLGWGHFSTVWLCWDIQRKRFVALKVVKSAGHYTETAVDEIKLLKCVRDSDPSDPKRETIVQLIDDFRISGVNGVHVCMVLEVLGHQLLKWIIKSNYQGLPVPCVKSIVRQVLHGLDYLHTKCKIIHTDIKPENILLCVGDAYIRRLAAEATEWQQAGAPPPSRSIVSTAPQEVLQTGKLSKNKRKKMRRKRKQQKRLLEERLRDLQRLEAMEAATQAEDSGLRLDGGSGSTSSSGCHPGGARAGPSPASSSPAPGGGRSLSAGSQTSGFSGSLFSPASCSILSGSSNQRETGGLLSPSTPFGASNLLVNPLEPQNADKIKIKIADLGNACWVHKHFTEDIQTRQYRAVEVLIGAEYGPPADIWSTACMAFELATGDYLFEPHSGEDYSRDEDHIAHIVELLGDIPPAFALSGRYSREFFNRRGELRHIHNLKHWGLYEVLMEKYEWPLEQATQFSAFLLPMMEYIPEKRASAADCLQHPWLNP

[16] = target: T16, kinome (kinase panel) (Homo sapiens, UniProt Q9P2K8, S808G); conditions: read-out: Percent Control
T16 construct: purchased Eurofins DiscoverX

[17] = target: T17, kinome (kinase panel) (Homo sapiens, UniProt Q59H18); conditions: TNNI3K; 1000 nM; read-out: Percent Control
T17 construct: purchased Eurofins DiscoverX

[18] = target: T18, kinome (kinase panel) (Homo sapiens, UniProt P78362); conditions: SRPK2; 1000 nM; read-out: Percent Control
T18 construct: purchased Eurofins DiscoverX

[19] = target: T19, kinome (kinase panel) (Homo sapiens, UniProt P31751); conditions: AKT2; 1000 nM; read-out: Percent Control
T19 construct: purchased Eurofins DiscoverX

[20] = target: T20, kinome (kinase panel) (Homo sapiens, UniProt O76039); conditions: CDKL5; 1000 nM; read-out: Percent Control
T20 construct: purchased Eurofins DiscoverX

[21] = target: T21, kinome (kinase panel) (Homo sapiens, UniProt Q9UEW8); conditions: STK39; 1000 nM; read-out: Percent Control
T21 construct: purchased Eurofins DiscoverX

[22] = target: T22, kinome (kinase panel) (Homo sapiens, UniProt P41743); conditions: PRKCI; 1000 nM; read-out: Percent Control
T22 construct: purchased Eurofins DiscoverX

[23] = target: T23, kinome (kinase panel) (Homo sapiens, UniProt O14757); conditions: CHEK1; 1000 nM; read-out: Percent Control
T23 construct: purchased Eurofins DiscoverX

[24] = target: T24, kinome (kinase panel) (Homo sapiens, UniProt P36888, N841I); conditions: […]; 1000 nM; read-out: Percent Control
T24 construct: purchased Eurofins DiscoverX

[25] = target: T25, kinome (kinase panel) (Homo sapiens, UniProt P42345); conditions: MTOR; 1000 nM; read-out: Percent Control
T25 construct: purchased Eurofins DiscoverX

[26] = target: T26, kinome (kinase panel) (Homo sapiens, UniProt Q07002); conditions: PCTK3 (Entrez CDK18); 1000 nM; read-out: Percent Control
T26 construct: purchased Eurofins DiscoverX

[27] = target: T27, kinome (kinase panel) (Homo sapiens, UniProt Q7KZI7); conditions: MARK2; 1000 nM; read-out: Percent Control
T27 construct: purchased Eurofins DiscoverX

[28] = target: T28, kinome (kinase panel) (Homo sapiens, UniProt Q05397); conditions: FAK (Entrez PTK2); 1000 nM; read-out: Percent Control
T28 construct: purchased Eurofins DiscoverX

[29] = target: T29, kinome (kinase panel) (Homo sapiens, UniProt Q8TF76); conditions: HASPIN (Entrez GSG2); 1000 nM; read-out: Percent Control
T29 construct: purchased Eurofins DiscoverX
T29 sequence (Q8TF76 whole entry): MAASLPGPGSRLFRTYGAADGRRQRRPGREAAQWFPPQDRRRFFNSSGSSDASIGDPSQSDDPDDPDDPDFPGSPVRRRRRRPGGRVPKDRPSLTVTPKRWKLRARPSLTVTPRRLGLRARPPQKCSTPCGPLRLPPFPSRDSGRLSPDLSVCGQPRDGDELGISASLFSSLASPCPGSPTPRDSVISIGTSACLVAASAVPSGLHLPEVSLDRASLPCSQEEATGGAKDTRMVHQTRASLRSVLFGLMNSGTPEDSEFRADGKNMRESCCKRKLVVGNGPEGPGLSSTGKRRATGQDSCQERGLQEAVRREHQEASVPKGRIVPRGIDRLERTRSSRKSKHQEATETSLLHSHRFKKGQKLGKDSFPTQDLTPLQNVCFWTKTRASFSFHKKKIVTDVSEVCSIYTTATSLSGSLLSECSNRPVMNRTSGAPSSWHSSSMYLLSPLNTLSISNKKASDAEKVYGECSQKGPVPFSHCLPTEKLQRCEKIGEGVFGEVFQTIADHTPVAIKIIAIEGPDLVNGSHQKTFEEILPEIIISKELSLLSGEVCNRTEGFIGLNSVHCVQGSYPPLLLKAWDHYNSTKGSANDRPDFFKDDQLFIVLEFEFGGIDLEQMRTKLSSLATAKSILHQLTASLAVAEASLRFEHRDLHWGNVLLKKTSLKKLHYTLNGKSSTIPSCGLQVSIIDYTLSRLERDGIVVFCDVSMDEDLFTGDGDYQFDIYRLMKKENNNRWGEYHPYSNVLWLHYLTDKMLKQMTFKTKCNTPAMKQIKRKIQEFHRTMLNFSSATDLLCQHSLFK

[30] = target: T30, kinome (kinase panel) (Homo sapiens, UniProt O14920); conditions: IKK-beta (Entrez IKBKB); 1000 nM; read-out: Percent Control
T30 construct: purchased Eurofins DiscoverX

[31] = target: T31, kinome (kinase panel) (Homo sapiens, UniProt P36888, D835Y); conditions: […]; 1000 nM; read-out: Percent Control
T31 construct: purchased Eurofins DiscoverX

CN(C)C(=O)c1cc2cnc(Nc3ccc(-c4csc5c(=O)cc(N6CCOCC6)oc45)cc3)nc2n1C1CCCC1 [SRX3177]
remaining binding at 1 µM [1]: 20%
remaining binding at 1 µM ([2]; RSK4(Kin.Dom.1-N-terminal) (RPS6KA6)): 90%
remaining binding at 1 µM ([2]; RSK4(Kin.Dom.2-C-terminal) (RPS6KA6)): 90%
remaining binding at 1 µM [3]: 46%
remaining binding at 1 µM [4]: 56%
remaining binding at 1 µM [5]: 89%
remaining binding at 1 µM ([6]; RPS6KA5(Kin.Dom.1-N-terminal)): 100%
remaining binding at 1 µM ([6]; RPS6KA5(Kin.Dom.2-C-terminal)): 100%
remaining binding at 1 µM [7]: 99%
remaining binding at 1 µM [8]: 73%
remaining binding at 1 µM ([9]; RSK1(Kin.Dom.1-N-terminal) (RPS6KA1)): 100%
remaining binding at 1 µM ([9]; RSK1(Kin.Dom.2-C-terminal) (RPS6KA1)): 100%
remaining binding at 1 µM [10]: 41%
remaining binding at 1 µM [11]: 100%
remaining binding at 1 µM [12]: 99%
remaining binding at 1 µM [13]: 60%
remaining binding at 1 µM [14]: 97%
remaining binding at 1 µM [15]: 35%
remaining binding at 1 µM [16]: 71%
remaining binding at 1 µM [17]: 94%
remaining binding at 1 µM [18]: 89%
remaining binding at 1 µM [19]: 98%
remaining binding at 1 µM [20]: 65%
remaining binding at 1 µM [21]: 71%
remaining binding at 1 µM [22]: 89%
remaining binding at 1 µM [23]: 100%
remaining binding at 1 µM [24]: 7.2%
remaining binding at 1 µM [25]: 79%
remaining binding at 1 µM [26]: 74%
remaining binding at 1 µM [27]: 96%
remaining binding at 1 µM [28]: 90%
remaining binding at 1 µM [29]: 67%
remaining binding at 1 µM [30]: 71%
remaining binding at 1 µM [31]: 83%

— publication PMC7385619, “A triple action CDK4/6-PI3K-BET inhibitor with augmented cancer cell cytotoxicity” (Cell Discovery, 2020)
